Key:
[1] = system: Mouse erythroleukemic cells (MEL); assay: HMBA-induced differentiation of erythroleukemic cells; assay type: cell-based; conditions: day 3
Method: Mouse erythroleukemic cells (MEL): MEL cells are erythroblast like cells. Following treatment with several chemicals (differentiation inducers) the cells undergo erythroid differentiation and accumulate hemoglobin. […] At day 3 of the culture, the total number of cells and the percentage of hemoglobin-containing cells were determined (Table 7).
On day 3, total cell number and hemoglobin containing (benzidine positive) cells were determined.

[2] = system: Boston fern Callus tissue cultures; assay: Intracellular copper content of plant callus tissues incubated with TEPA; assay type: cell-based; conditions: two days
Method: Plant cells: The effect of TEPA on the intracellular copper content of plant cells was determined as follows. Boston fern Callus tissue cultures were obtained from a commercial plant tissue culture production facility (Biological Industries, Kibbutz Bet Ha'Emek, Israel) and incubated with different concentrations of TEPA in the culture medium for two days at room temperature. After three washes with PBS the tissues were suspended in 0.03 M ultra pure nitric acid and homogenized with a high shear mixer (polytron, Kinematica, Switzerland) for 3 minutes to disrupt the cells and release intracellular copper. Cell samples were vortexed before transferring to a vial autosampler and analyzed in duplicate by a Perkin Elmer graphite furnace atomic absorption spectrophotometer at a wavelength of 324.7 nm. The samples were analyzed against copper standard solution prepared from a commercial stock solution that was diluted with 0.03 M ultra pure nitric acid.

NOD/SCID mice = assay: Engraftment of SCID mice by ex-vivo expanded human hematopoietic cells; assay type: in vivo; conditions: for Engraftment CD19 (%) / Engraftment CD34 (%) / Engraftment CD45 (%) / Engraftment Colonies (per 2 × 10^5 SCID BM cells): TEPA + Cytokines
Method: Engraftment of SCID mice by ex-vivo expanded human hematopoietic cells: […] After 4 weeks, the mice were sacrificed and their femora and tibias were excised and the bone marrow flushed with a syringe fitted with a 25 gauge needle. A single cell suspension was prepared, the cells were washed and an aliquot counted with Trypan blue. In order to quantitate engrafted cells of human origin, cells were stained with FITC-conjugated anti CD45 antibodies and PE-conjugated either anti CD34, CD19 or CD33 antibodies. Anti CD45 antibodies recognize human, but not mouse, cells, and thus, indicates the human origin of the cells. The proliferation and differentiation potential of the engrafted cells was assayed by cloning bone marrow cells in semi-solid medium under conditions that allow specifically growth of human derived colonies essentially as described in (56).

[3] = CB 2 (first listed) 10% FCS, 2 weeks ex-vivo
[4] = CB 2 (second listed) 10% FCS, 2 weeks ex-vivo

NCCNCCNCCNCCN [TEPA, tetraethylenepentamine]
Benzidine Positive Cells (%) ([1]; HMBA + chelator 5 μM): 24% | Cells/ml (×10^4) ([1]; HMBA + chelator 5 μM): 35 ×10^4 | Benzidine Positive Cells (%) ([1]; HMBA + chelator 10 μM): 16% | Cells/ml (×10^4) ([1]; HMBA + chelator 10 μM): 35 ×10^4 | Benzidine Positive Cells (%) ([1]; HMBA + chelator 20 μM): 16% | Cells/ml (×10^4) ([1]; HMBA + chelator 20 μM): 47 ×10^4 | Average Intracellular Copper Content (ppb) ([2]; TEPA 10 μM in medium): 13.85 +/− 4.09 ppb | Average Intracellular Copper Content (ppb) ([2]; TEPA 50 μM in medium): 8.45 +/− 0.05 ppb | Average Intracellular Copper Content (ppb) ([2]; TEPA 100 μM in medium): 7.1 +/− 2.12 ppb | Engraftment CD19 (%) (NOD/SCID mice; [3]): 11% | Engraftment CD34 (%) (NOD/SCID mice; [3]): 13% | Engraftment CD45 (%) (NOD/SCID mice; [3]): 56% | Engraftment Colonies (per 2 × 10^5 SCID BM cells) (NOD/SCID mice; [3]): 330 | Engraftment CD19 (%) (NOD/SCID mice; [4]): 9% | Engraftment CD34 (%) (NOD/SCID mice; [4]): 13.5% | Engraftment CD45 (%) (NOD/SCID mice; [4]): 48% | Engraftment Colonies (per 2 × 10^5 SCID BM cells) (NOD/SCID mice; [4]): 528 | Engraftment CD19 (%) (NOD/SCID mice; CB 3 10% FCS, 2 weeks ex-vivo): 5% | Engraftment CD34 (%) (NOD/SCID mice; CB 3 10% FCS, 2 weeks ex-vivo): 4% | Engraftment CD45 (%) (NOD/SCID mice; CB 3 10% FCS, 2 weeks ex-vivo): 20% | Engraftment Colonies (per 2 × 10^5 SCID BM cells) (NOD/SCID mice; CB 3 10% FCS, 2 weeks ex-vivo): 100 | Engraftment CD19 (%) (NOD/SCID mice; CB 4 1% FCS, 2 weeks ex-vivo): 8% | Engraftment CD34 (%) (NOD/SCID mice; CB 4 1% FCS, 2 weeks ex-vivo): 7% | Engraftment CD45 (%) (NOD/SCID mice; CB 4 1% FCS, 2 weeks ex-vivo): 28% | Engraftment Colonies (per 2 × 10^5 SCID BM cells) (NOD/SCID mice; CB 4 1% FCS, 2 weeks ex-vivo): 185 | Engraftment CD19 (%) (NOD/SCID mice; CB 4 1% FCS, 4 weeks ex-vivo): 14% | Engraftment CD34 (%) (NOD/SCID mice; CB 4 1% FCS, 4 weeks ex-vivo): 9% | Engraftment CD45 (%) (NOD/SCID mice; CB 4 1% FCS, 4 weeks ex-vivo): 40% | Engraftment Colonies (per 2 × 10^5 SCID BM cells) (NOD/SCID mice; CB 4 1% FCS, 4 weeks ex-vivo): 267 | Engraftment CD19 (%) (NOD/SCID mice; CB 5- FCS, 4 weeks ex-vivo): 9% | Engraftment CD34 (%) (NOD/SCID mice; CB 5- FCS, 4 weeks ex-vivo): 6% | Engraftment CD45 (%) (NOD/SCID mice; CB 5- FCS, 4 weeks ex-vivo): 21% | Engraftment Colonies (per 2 × 10^5 SCID BM cells) (NOD/SCID mice; CB 5- FCS, 4 weeks ex-vivo): 275 | Engraftment CD19 (%) (NOD/SCID mice; CB 6 1% FCS, 2 weeks ex-vivo): 19% | Engraftment CD34 (%) (NOD/SCID mice; CB 6 1% FCS, 2 weeks ex-vivo): 16% | Engraftment CD45 (%) (NOD/SCID mice; CB 6 1% FCS, 2 weeks ex-vivo): 73% | Engraftment Colonies (per 2 × 10^5 SCID BM cells) (NOD/SCID mice; CB 6 1% FCS, 2 weeks ex-vivo): 350 | Engraftment CD19 (%) (NOD/SCID mice; CB 6 10% FCS, 2 weeks ex-vivo): 26% | Engraftment CD34 (%) (NOD/SCID mice; CB 6 10% FCS, 2 weeks ex-vivo): 9% | Engraftment CD45 (%) (NOD/SCID mice; CB 6 10% FCS, 2 weeks ex-vivo): 73% | Engraftment Colonies (per 2 × 10^5 SCID BM cells) (NOD/SCID mice; CB 6 10% FCS, 2 weeks ex-vivo): 420 | cord blood samples (of 6) expanded ex-vivo that succeeded to engraft the animals (NOD/SCID mice; expanded in the presence of TEPA): 6

Source: patent US20050054103A1, “Expansion of renewable stem cell populations using modulators of PI 3-kinase” (priority 2003, published 2005)
